Values of other authors, collected in US8071772B2, “Spirolactam bicyclic CGRP receptor antagonists” (Merck Sharp & Dohme Corp., priority 2005, dated 2011).
No end group written: not given here.

Experiments:
facial blood flow [1] = conditions: marmoset; Doods et al. 2000
[2] = system: diameter of the middle meningeal artery; conditions: rat, prior administration; Williamson et al. 1997
facial blood flow [3] = conditions: rat; Escott et al. 1995

Compound | effect on increase in facial blood flow (facial blood flow [1]) | effect on increase of middle meningeal artery diameter [2] | effect on increased facial blood flow (facial blood flow [3])
NCCCC[C@H](NC(=O)[C@@H](Cc1cc(Br)c(O)c(Br)c1)NC(=O)N1CCC(N2Cc3ccccc3NC2=O)CC1)C(=O)N1CCN(c2ccncc2)CC1 [BIBN4096BS] | blocked | – | –
CGRP(8-37): a peptide CGRP antagonist; fragment of CGRP that lacks seven N-terminal amino acid residues (VTHRLAGLLSRSGGVVKNNFVPTNVGSKAF; ends and bridges not checked; UniProt P06881 90-119, looked up, fragment) | – | blocked | inhibited
